Results on 51 molecules are retold here after US20040192686A1, “Benzoazine mono-N-oxides and benzoazine 1,4 dioxides and compositions therefrom for the therapeutic use in cancer treatments” (Auckland Uniservices Limited, priority 2003, published 2004).

Counter-ions that a name gives are not always drawn.

Turning to `CN(C)CCc1nc2ccccc2[n+]([O-])n1`, the melting point was in the range of 47 to 49 °C.

`Cl.[O-][n+]1nc(CCN2CCOCC2)nc2ccccc21` displayed a melting point of 213 to 215 °C.

`CN(C)CCCc1nc2ccccc2[n+]([O-])n1.Cl` showed a melting point of 228 to 230 °C.

The molecule `Cl.[O-][n+]1nc(CCCN2CCCCC2)nc2ccccc21` displayed a melting point of 151 to 153 °C.

The molecule `CN(C)CCN(C)c1nc2ccccc2[n+]([O-])n1` (as salt: hydrochloride) [Compound 38, N^1,N^1,N^2-Trimethyl-N^2-(1-oxido-1,2,4-benzotriazin-3-yl)-1,2-ethanediamine] came in with a melting point of 220 to 223 °C.

Take `COc1ccc2nc(NCCN(C)C)n[n+]([O-])c2c1` (as salt: hydrochloride) [Compound 92, N^1-(7-Methoxy-1-oxido-1,2,4-benzotriazin-3-yl)-N^2,N^2-dimethyl-1,2-ethanediamine]: the melting point lay within 231 to 235 °C.

Molecule `COc1cccc2nc(N)n[n+]([O-])c12` (hydrate or solvate) [Compound 3a, 8-Methoxy-1,2,4-benzotriazin-3-amine 1-oxid] came in with a melting point of 235 to 239 °C.

Molecule `CSc1cccc2nc(N)n[n+]([O-])c12` (hydrate or solvate) [Compound 3f, 8-(Methylsulfanyl)-1,2,4-benzotriazin-3-amine 1-oxide] had a melting point of 271 to 275 °C.

The molecule `Nc1nc2c(Cl)cccc2[n+]([O-])n1` [Compound 3aa, 5-Chloro-1,2,4-benzotriazin-3-amine 1-oxide] registered a melting point of 251 to 254 °C.

The molecule `Nc1nc2c(F)cccc2[n+]([O-])n1` [Compound 3ab, 5-Fluoro-1,2,4-benzotriazin-3-amine 1-oxide] came in with a melting point of 252 to 256 °C.

`Nc1nc2c([N+](=O)[O-])cccc2[n+]([O-])n1` [Compound 3ac, 5-Nitro-1,2,4-benzotriazin-3-amine-1-oxide] gave a melting point of 269 to 272 °C.

For `CSc1cccc2c1nc(N)n[n+]2[O-]` [Compound 3ad, 5-Methylsulfanyl-1,2,4-benzotriazin-3-amine 1-oxide], the melting point fell in the range of 248 to 252 °C.

With `Cc1cccc2nc(N)n[n+]([O-])c12` [Compound 3b, 8-Methyl-1,2,4-benzotriazin-3-amine 1-oxide], the melting point was 265 °C (dec.).

In the case of `Nc1nc2cccc(F)c2[n+]([O-])n1` [Compound 3c, 8-Fluoro-1,2,4-benzotriazin-3-amine 1-oxide], the melting point was 270 to 278 °C (dec.).

`Nc1nc2cccc(Cl)c2[n+]([O-])n1` [Compound 3d, 8-Chloro-1,2,4-benzotriazin-3-amine 1-oxide]: the melting point is 280 to 290 °C (dec.).

Regarding `Nc1nc2cccc(C(F)(F)F)c2[n+]([O-])n1` [Compound 3e, 8-Trifluoromethyl-1,2,4-benzotriazin-3-amine 1-oxid], the melting point was 280 to 286 °C (dec.).

Consider `CCCCSc1cccc2nc(N)n[n+]([O-])c12` [Compound 3g, 8-(Butylsulfanyl)-1,2,4-benzotriazin-3-amine 1-oxide], for which the melting point fell in the range of 233 to 236 °C.

Consider `Cc1ccc2nc(N)n[n+]([O-])c2c1` [Compound 3j, 7-Methyl-1,2,4-benzotriazin-3-amine 1-oxide], for which the melting point is 270 °C (dec.).

Turning to `Nc1nc2ccc(F)cc2[n+]([O-])n1` [Compound 3k, 7-Fluoro-1,2,4-benzotriazin-3-amin 1-oxide], the melting point is 280 to 290 °C (dec.).

Take `Nc1nc2ccc(Cl)cc2[n+]([O-])n1` [Compound 3l, 7-Chloro-1,2,4-benzotriazin-3-amine 1-oxide]: the melting point is 309 °C (dec.).

As for `Nc1nc2ccc(C(F)(F)F)cc2[n+]([O-])n1` [Compound 3m, 7-Trifluoromethyl-1,2,4-benzotriazin-3-amine 1-oxide], the melting point was 290 °C (dec.).

With `CSc1ccc2nc(N)n[n+]([O-])c2c1` [Compound 3n, 7-(Methylsulfanyl)-1,2,4-benzotriazin-3-amine 1-oxide], the melting point was 245 to 247 °C.

Molecule `CCCCSc1ccc2nc(N)n[n+]([O-])c2c1` [Compound 3o, 7-(Butylsulfanyl)-1,2,4-benzotriazin-3-amine 1-oxide] gave a melting point of 215 to 217 °C.

Turning to `Nc1nc2ccc([N+](=O)[O-])cc2[n+]([O-])n1` [Compound 3p, 7-Nitro-1,2,4-benzotriazin-3-amine 1-oxide], the melting point was in the range of 269 to 272 °C.

In turn, `COc1ccc2c(c1)nc(N)n[n+]2[O-]` [Compound 3q, 6-Methoxy-1,2,4-benzotriazin-3-amine 1-oxide] registered a melting point of 265 to 270 °C.

For `Cc1ccc2c(c1)nc(N)n[n+]2[O-]` [Compound 3r, 6-Methyl-1,2,4-benzotriazin-3-amine 1-oxide], the melting point was 263 °C (dec.).

On to `Nc1nc2cc(-c3ccccc3)ccc2[n+]([O-])n1` [Compound 3s, 6-Phenyl-1,2,4-benzotriazin-3-amine 1-oxide], for which the melting point was 256 to 258 °C.

Regarding `Nc1nc2cc(F)ccc2[n+]([O-])n1` [Compound 3t, 6-Fluoro-1,2,4-benzotriazin-3-amine 1-oxide], the melting point is 276 to 280 °C.

Consider `Nc1nc2cc(C(F)(F)F)ccc2[n+]([O-])n1` [Compound 3v, 6-Trifluoromethyl-1,2,4-benzotriazin-3-amine 1-oxide], for which the melting point is 280 to 284 °C (dec.).

Take `CSc1ccc2c(c1)nc(N)n[n+]2[O-]` [Compound 3w, 6-(Methylsulfanyl)-1,2,4-benzotriazin-3-amine 1-oxide]: the melting point is 248 to 250 °C.

The molecule `CCCCSc1ccc2c(c1)nc(N)n[n+]2[O-]` [Compound 3x, 6-(Butylsulfanyl)-1,2,4-benzotriazin-3-amine 1-oxide] gave a melting point of 180 to 182 °C.

Consider `COc1cccc2c1nc(N)n[n+]2[O-]` [Compound 3y, 5-Methoxy-1,2,4-benzotriazin-3-amine 1-oxide], for which the melting point is 267 °C (dec.).

With `Cc1cccc2c1nc(N)n[n+]2[O-]` [Compound 3z, 5-Methyl-1,2,4-benzotriazin-3-amine 1-oxide], the melting point is 253 to 255 °C.

As for `CN(C)c1ccc2nc(N)n[n+]([O-])c2c1` [Compound 11, N^7,N^7-Dimethyl-1,2,4-benzotriazine-3,7-diamine 1-oxide], the melting point was in the range of 231 to 233 °C.

Molecule `CCN(CC)c1ccc2c(c1)nc(N)n[n+]2[O-]` [Compound 13, N^6, N^6-Diethyl-1,2,4-benzotriazine-3,6-diamine 1-oxide] returned a melting point of 247 to 251 °C.

With `COCCOc1ccc2nc(N)n[n+]([O-])c2c1` [Compound 14, 7-(2-Methoxyethoxy)-1,2,4-benzotriazin-3-amine 1-oxide], the melting point lay within 201 to 203 °C.

For `Nc1nc2ccc(OCCBr)cc2[n+]([O-])n1` [Compound 15, 7-(2-Bromoethoxy)-1,2,4-benzotriazin-3-amine 1-oxide], the melting point lay within 228 to 230 °C.

`Nc1nc2ccc(OCCN3CCOCC3)cc2[n+]([O-])n1` [Compound 17, 7-[2-(4-Morpholinyl)ethoxy]-1,2,4-benzotriazin-3-amin 1-oxide] registered a melting point of 175 to 181 °C.

On to `CCOC(=O)CNc1nc2ccccc2[n+]([O-])n1` [Compound 20, Ethyl [(1-oxido-1,2,4-benzotriazin-3-yl)amino]acetate], for which the melting point fell in the range of 136 to 138 °C.

As to `O=C(O)CNc1nc2ccccc2[n+]([O-])n1` [Compound 21, [(1-Oxido-1,2,4-benzotriazin-3-yl)amino]acetic acid], the melting point fell in the range of 217 to 219 °C.

`COCCNc1nc2ccccc2[n+]([O-])n1` [Compound 23, N-(2-Methoxyethyl)-1,2,4-benzotriazin-3-amine 1-oxide]: the melting point was 155 to 156 °C.

In turn, `N#CCCNc1nc2ccccc2[n+]([O-])n1` [Compound 26, 3-[(1-Oxido-1,2,4-benzotriazin-3-yl)amino]propanenitrile] returned a melting point of 191 to 193 °C.

`N#CCCCNc1nc2ccccc2[n+]([O-])n1` [Compound 27, 4-[(1-Oxido-1,2,4-benzotriazin-3-yl)amino]butanenitrile] came in with a melting point of 184 to 187 °C.

`[N-]=[N+]=NCCCNc1nc2ccccc2[n+]([O-])n1` [Compound 28, N-(3-Azidopropyl)-1,2,4-benzotriazin-3-amine 1-oxide]: the melting point fell in the range of 128 to 130 °C.

The molecule `CC(C)(C)OC(=O)NCCCNc1nc2ccccc2[n+]([O-])n1` [Compound 29, tert-Butyl 3-[(1-oxido-1,2,4-benzotriazin-3-yl)amino]propylcarbamate] showed a melting point of 145 to 147 °C.

As to `CCN(CCCNc1nc2ccccc2[n+]([O-])n1)C(=O)OC(C)(C)C` [Compound 32, tert-Butyl 3-[(1-oxido-1,2,4-benzotriazin-3-yl)amino]propyl(ethyl)carbamate], the melting point was 64 to 66 °C.

Take `[O-][n+]1nc(NCCOCCO)nc2ccccc21` [Compound 33, 3-{[2-(2-Hydroxyethoxy)ethyl]amino}-1,2,4-benzotriazine 1-oxide]: the melting point lay within 131 to 131.5 °C.

On to `[N-]=[N+]=NCCOCCNc1nc2ccccc2[n+]([O-])n1` [Compound 34, 3-{[2-(2-Azidoethoxy)ethyl]amino}-1,2,4-benzotriazine 1-oxide], for which the melting point was 102 to 104 °C.

For `CC(C)(C)ONC(=O)CCOCCNc1nc2ccccc2[n+]([O-])n1` [Compound 35, 3-{[2-(2-tert-Butyloxycarbamoylethoxy)ethyl]amino}-1,2,4-benzotriazine 1-oxide], the melting point is 134 to 137 °C.

`[O-][n+]1nc(NCCN2CCCC2)nc2ccccc21` [Compound 40, N-[2-(1-Pyrrolidinyl)ethyl]-1,2,4-benzotriazin-3-amin 1-oxid]: the melting point lay within 141 to 143 °C.

As to `[O-][n+]1nc(NCCN2CCOCC2)nc2ccccc21` [Compound 41, N-[2-(4-Morpholinyl)ethyl]-1,2,4-benzotriazin-3-amine 1-oxide], the melting point was in the range of 170 to 172 °C.

One may read the melting point as the temperature, or range, at which the solid turns liquid.
